# Patent EP1192149B1, “1,4-DITHIIN AND 1,4-DITHIEPIN- 1,1,4,4, TETROXIDE DERIVATIVES USEFUL AS ANTAGONISTS OF THE HUMAN GALANIN RECEPTOR” (Ortho-McNeil Pharmaceutical, Inc., priority 1999, dated 2000)
# Like-named read-outs stand apart in the source and are kept apart here.
# Assays:
# hGALR-1 = target: T1, hGALR-1 (Homo sapiens, UniProt P47211); assay: Human Galanin-1 Receptor Binding Assay (SPA, 125I human galanin displacement); details: membranes from human Bowes melanoma cells
# T1 construct: hGALR-1 that is contained in membranes from human Bowes melanoma cells; endogenous in cells; host or cells: human Bowes melanoma cells (membranes)
# T1 sequence (P47211 1-349): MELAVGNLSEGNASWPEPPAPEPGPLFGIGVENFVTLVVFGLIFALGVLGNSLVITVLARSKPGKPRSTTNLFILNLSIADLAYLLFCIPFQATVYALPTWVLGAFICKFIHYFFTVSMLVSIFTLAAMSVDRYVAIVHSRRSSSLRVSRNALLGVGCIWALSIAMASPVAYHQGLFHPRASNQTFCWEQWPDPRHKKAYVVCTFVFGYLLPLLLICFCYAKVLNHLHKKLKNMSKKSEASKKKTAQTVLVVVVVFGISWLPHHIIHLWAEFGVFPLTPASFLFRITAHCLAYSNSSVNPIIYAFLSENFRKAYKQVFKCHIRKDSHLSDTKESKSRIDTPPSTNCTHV
# Procedure: This assay determines the concentration (IC50) of a test compound which prevents 50% of galanin from binding to the hGALR-1 that is contained in membranes from human Bowes melanoma cells bound to wheat germ agglutinin conjugated Scintillation Proximity Assay (SPA) beads. The IC50 value is obtained by measuring the effect of half log increment dilutions of the test compound in duplicate using a 96-well plate (eight-rows, 12-columns).
# The SPA beads (500 mg) were dissolved in 12.5 mL of assay buffer composed of 20mM DMSO-HEPES (pH 7.4), 0.1% bovine serum albumin, 2mM MgCl2, 2mM CaCl2, and protease inhibitors. Enough of this suspension for five plates (25 µL x 5 x 96 wells = 12000 µL) was dispensed into a 50 mL sterile Falcon tube. The amount of membranes required for five plates was then added (50µg x 5 x 96 wells), followed by 32.5 mL of 30% DMSO-HEPES buffer. The mixture was placed on a rotator and agitated for 0.5 hours and the non-specific binding sites on the beads were blocked by the addition of 5% [final] fetal bovine serum. Each well of the 96-well plate received 100 µL of this mixture.
# To the control column (column 12) rows A and B was added 3.75 µL of a 300 µM solution of galantide in 30% DMSO-HEPES buffer, to rows C and D was added 3.75 µL of 30% DMSO-HEPES buffer and to rows E and F was added 3.75 µL of a 300 µM solution of galanin in 30% DMSO-HEPES buffer. In columns 1 through 11 were added solutions of the test compound in 30% DMSO-HEPES buffer starting at 30 µM and decreasing in concentration in half-log dilutions. A solution of radioactive ^125I human galanin (46.25 µL), prepared from 25 micro Curies of ^125I human galanin (2000 ci/mmol) and 500 µL of assay buffer, was added to each well. The plate was sealed with adhesive paper and incubated for 16 hr at room temperature before the quench-corrected bound radioactivity was measured in a Topcount® apparatus. For each dilution, the % inhibition of galanin binding was calculated as follows: Total binding (T) = Mean counts/minute (cpm) in row C and D in column 12 [formula] Non-specific binding (NSB) = Mean cpm in row E and F in column 12 [formula] Total specific binding (TS) = T-NSB [formula] cpm in each well = C [formula] net cpm in each well (N) = C-NSB [formula] % inhibition = 100%-N × 100%/TS [formula]
# The IC50 values for each compound were calculated from the non-linear regression curve of the data using Prism® graphics software.
# Rat Galanin-1 Receptor = target: T2, Rat Galanin-1 Receptor (Rattus norvegicus, UniProt Q62805); assay: Galanin-1 receptor mediated inhibition of acetylcholine release from rat brain cortical slices (superfusion, K+-evoked [3H]acetylcholine efflux); details: for Acetycholine Secretion Stimulated (change vs Control) / Acetycholine Secretion Stimulated: K+-evoked; for Acetycholine Secretion Stimulated / Acetycholine Secretion Basal: mean fractional tritium release
# T2 construct: Rat brain cerebrocortical tissues were chopped into slices; from tissue; host or cells: rat brain cerebrocortical slices
# T2 sequence (Q62805 1-346): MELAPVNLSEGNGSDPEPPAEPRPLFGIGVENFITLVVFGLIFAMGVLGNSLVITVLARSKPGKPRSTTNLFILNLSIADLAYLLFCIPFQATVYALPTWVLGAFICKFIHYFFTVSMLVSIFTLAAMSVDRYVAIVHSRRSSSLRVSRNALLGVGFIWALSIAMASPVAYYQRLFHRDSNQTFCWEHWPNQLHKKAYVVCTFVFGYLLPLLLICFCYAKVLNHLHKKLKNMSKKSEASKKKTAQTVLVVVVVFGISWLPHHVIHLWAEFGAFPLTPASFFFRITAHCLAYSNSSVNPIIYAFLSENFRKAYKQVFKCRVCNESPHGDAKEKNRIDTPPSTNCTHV
# Procedure: Rat brain cerebrocortical tissues were chopped into slices of 300 x 300 x […] using a Mcllwain tissue chopper. The slices were washed and incubated at 37°C for 30 min in Krebs-Ringer solution: NaCl 118 mM, KCI 4.8 mM, CaCl2 1.3 mM, KH2PO4 1.2 mM, MgSO4 1.2 mM, NaHCO3, 25 mM, glucose […], ascorbic acid […] (previously aerated for 10 min with 95% O2/5% CO2 to obtain a pH of 7.4) and 0.1 µM [Methyl-^3H]choline chloride (85 Ci/mmol, Amersham Life Sciences, Arlington Heights, IL). After incubation, the slices were washed three times with ice-cold physiological solution and resuspended in 6 ml of cold solution. Equal aliquots of the tissue suspension were placed in each of 6 parallel superfusion chambers (Hugo Sachs Elektronik, March-Hugstetten, Germany). A circular piece of nylon mesh (pore size 250 um) was placed just below each chamber outlet in order to prevent the loss of tissue. The chambers were perfused against gravity with oxygenated Krebs-Ringer containing 1 mM physostigmine hemisulfate at a flow rate of 1 ml/min. At the concentration used, physostigmine had no effect on the release of total radioactivity from tissue slices. The onset of superfusion was defined as time zero (t0). Starting at 30 min after t0, 10 min fractions of the effluent were collected.
# Release of [^3H]acetylcholine was induced by superfusing tissues for 30 sec with 65mM K^+-Krebs-Ringer solution (made by isomolar replacement of NaCl with KCI). Four potassium pulses were given respectively at 40 min (S1), 70 min (S2), 100 min (S3) and 130 min (S4) after to. No significant deterioration in fractional release was observed during the 4 consecutive stimuli. […] To permit construction of concentration-effect curves, concentrations of agents were increased 10 fold between each stimulus.
# Following perfusion, the tissue was homogenized in 1 ml ethanol and aliquots of superfusates (0.4ml) and tissue homogenates (0.04ml) were added to 5 ml of Scintsafe PlusTM 50% (Fisher Scientific, Pittsburgh, PA) and radioactivity counted by liquid scintillation spectrometry. The total ^3H content in this procedure consisted mainly of [^3H]acetylcholine.
# Tritium (^3H) efflux into the superfusate was calculated as the fraction of tritium content in the slices or synaptosomes at the onset of the respective collection period. For calculation of the stimulated tritium overflow, the estimated basal efflux (the average of the 10 min fractions immediately before and after each stimulation) was subtracted from the total tritium efflux during the 10 min fraction which began with the 30 sec K^+ pulse. This difference was then used to calculate the percent of K^+-evoked release of acetylcholine.
# In order to quantify the in vitro effect of a drug on stimulated tritium outflow, the ratio of the fraction released by a given pulse, Sn, to that evoked by S1, was determined. Data presented below are expressed as the mean fractional tritium release ± S.E.M. Statistical differences between treatments were tested by the two-tailed Student's t test or the two factor ANOVA as appropriate. Individual differences in the dose-response curve was evaluated by the Newman-Keul multiple comparison.
# [1] = Table II, formula (II) compounds, read-out: hGAL IC50
# [2] = Table I, formula (I) compounds, read-out: HGAL IC50
SMILES,IC50 (hGALR-1; [1]),other results
Cc1cccc(C2=CS(=O)(=O)CCCS2(=O)=O)c1 [Cmpd 6],1300 nM,
O=S1(=O)C=C(c2ccc(-c3ccccc3)cc2)S(=O)(=O)CCC1 [Cmpd 24],600 nM,
O=S1(=O)C=C(c2ccc(Br)cc2)S(=O)(=O)CCC1 [Cmpd 13],260 nM,
O=S1(=O)C=C(c2ccsc2)S(=O)(=O)CCC1 [Cmpd 41],1300 nM,
O=S1(=O)C=C(c2ccccc2Cl)S(=O)(=O)CCC1 [Cmpd 12],640 nM,
O=S1(=O)C=C(c2ccccc2F)S(=O)(=O)CCC1 [Cmpd 29],430 nM,
O=S1(=O)C=C(c2cccc(I)c2)S(=O)(=O)CCC1 [Cmpd 27],850 nM,
O=S1(=O)C=C(c2ccc(C3CCCCC3)cc2)S(=O)(=O)CCC1 [Cmpd 25],1100 nM,
O=S1(=O)C=C(c2ccc(F)cc2)S(=O)(=O)CCC1 [Cmpd 14],410 nM,
CCCCOc1ccc(C(=O)NC(Cc2ccccc2)C2=CS(=O)(=O)CCS2(=O)=O)cc1 (centres unmarked) [Cmpd 4],,IC50 (hGALR-1; [2]): 1000 nM
O=S1(=O)C=C(c2cccc(Br)c2)S(=O)(=O)CCC1 [Cmpd 9],890 nM,
O=S1(=O)C=C(c2ccc(OC(F)(F)F)cc2)S(=O)(=O)CCC1 [Cmpd 23],490 nM,
O=C(Oc1ccccc1)c1cccc(C2=CS(=O)(=O)CCCS2(=O)=O)c1 [Cmpd 33],440 nM,
O=C(NCCc1ccccc1)c1ccc(C2=CS(=O)(=O)CCCS2(=O)=O)cc1 [Cmpd 38],1060 nM,
O=S1(=O)C=C(c2cccs2)S(=O)(=O)CCC1 [Cmpd 40],1300 nM,
CCOc1ccc(C2=CS(=O)(=O)CCCS2(=O)=O)cc1 [Cmpd 28],590 nM,
O=S1(=O)C=C(c2ccc(Oc3ccccc3)cc2)S(=O)(=O)CCC1 [Cmpd 19],410 nM,
COc1ccccc1C1=CS(=O)(=O)CCCS1(=O)=O [Cmpd 32],1000 nM,

SMILES,IC50 (hGALR-1; [1]),other results
CCCNC(=O)c1ccc(C2=CS(=O)(=O)CCCS2(=O)=O)cc1 [Cmpd 36],1040 nM,
CCOC(=O)c1ccc(C2=CS(=O)(=O)CCCS2(=O)=O)cc1 [Cmpd 34],1000 nM,
Cc1ccccc1C1=CS(=O)(=O)CCCS1(=O)=O [Cmpd 18],1600 nM,
O=S1(=O)C=C(c2cccc(OC(F)(F)F)c2)S(=O)(=O)CCC1 [Cmpd 20],2700 nM,
O=S1(=O)C=C(c2ccc(C(F)(F)F)cc2)S(=O)(=O)CCC1 [Cmpd 22],2100 nM,
O=S1(=O)C=C(c2ccccc2)S(=O)(=O)CCC1 [Cmpd 5],2700 nM,
NC(Cc1ccccc1)C1=CS(=O)(=O)CCS1(=O)=O (centres unmarked) [Cmpd 3],,IC50 (hGALR-1; [2]): 8000 nM
O=S1(=O)C=C(c2ccccc2Br)S(=O)(=O)CCC1 [Cmpd 30],570 nM,
O=S1(=O)C=C(c2ccccc2)S(=O)(=O)CC1 [Cmpd 1],,IC50 (hGALR-1; [2]): 2700 nM
O=S1(=O)C=C(c2ccccc2C(F)(F)F)S(=O)(=O)CCC1 [Cmpd 31],580 nM,
O=S1(=O)C=C(c2ccc(I)cc2)S(=O)(=O)CCC1 [Cmpd 17],710 nM,Acetycholine Secretion Basal (change vs Control) (Rat Galanin-1 Receptor; 1 µM+GAL): -39.2%; Acetycholine Secretion Stimulated (change vs Control) (Rat Galanin-1 Receptor; 1 µM+GAL): -35.2%; Acetycholine Secretion Stimulated (Rat Galanin-1 Receptor; 1 µM+GAL): 5.37; Acetycholine Secretion Basal (Rat Galanin-1 Receptor; 1 µM+GAL): 2.19; Acetycholine Secretion Basal (change vs Control) (Rat Galanin-1 Receptor; 10 µM+GAL): -37%; Acetycholine Secretion Stimulated (change vs Control) (Rat Galanin-1 Receptor; 10 µM+GAL): -22.3%; Acetycholine Secretion Stimulated (Rat Galanin-1 Receptor; 10 µM+GAL): 6.44; Acetycholine Secretion Basal (Rat Galanin-1 Receptor; 10 µM+GAL): 2.27
O=S1(=O)C=C(c2cccc(Cl)c2)S(=O)(=O)CCC1 [Cmpd 8],1000 nM,
CCc1ccc(C2=CS(=O)(=O)CCCS2(=O)=O)cc1 [Cmpd 26],430 nM,
O=S1(=O)C=C(c2ccc(S(=O)(=O)c3ccccc3)cc2)S(=O)(=O)CCC1 [Cmpd 35],1580 nM,
O=S1(=O)C=C(c2cccc3ccccc23)S(=O)(=O)CCC1 [Cmpd 37],371 nM,
O=S1(=O)C=C(c2cccc(C(F)(F)F)c2)S(=O)(=O)CCC1 [Cmpd 11],600 nM,
O=S1(=O)C=C(c2cccc(F)c2)S(=O)(=O)CCC1 [Cmpd 16],,Acetycholine Secretion Basal (change vs Control) (Rat Galanin-1 Receptor; 1 µM+GAL): -38.9%; Acetycholine Secretion Stimulated (change vs Control) (Rat Galanin-1 Receptor; 1 µM+GAL): -23.9%; Acetycholine Secretion Basal (Rat Galanin-1 Receptor; 1 µM+GAL): 2.20; Acetycholine Secretion Basal (change vs Control) (Rat Galanin-1 Receptor; 10 µM+GAL): -37%
COc1cccc(C2=CS(=O)(=O)CCCS2(=O)=O)c1 [Cmpd 7],910 nM,
